The test system of test [1] is TNF-α production by LPS-activated THP1 cells. As to the kind of experiment: Lipopolysaccharide-activated THP1 cell TNF production assay. The settings on record: Homo sapiens, THP-1, 3 hours, read-out: IC50 in the THP-1 cellular TNF production assay. The format is cell-based. The method, then: Lipopolysaccharide-activated THP1 Cell TNF Production Assay
THP1 cells were resuspended in fresh THP1 media (RPMI 1640, 10% heat-inactivated FBS, 1×PGS, 1×NEAA, plus 30 μM βME) at a concentration of 1.5×10^6 cells per mL. One hundred microliters of cells per well were plated in a polystyrene 96-well tissue culture plate. 1.5 micrograms per mL of bacterial LPS was prepared in THP1 media and transferred to the first 11 columns of a 96-well polypropylene plate. Column 12 contained only THP1 media for the LO control. Compounds were dissolved in 100% DMSO and serially diluted 3 fold in a polypropylene 96-well microtiter plate (drug plate). Columns 6 and 12 were reserved as controls (HI controls and LO controls respectively) and contained only DMSO. […] Fifty microliters of conditioned media was transferred to a 96-well MULTI-ARRAY™ 96-well small spot plate—custom coated with MAB610 containing 100 μL of 2× Read Buffer P supplemented with 0.34 nM AF210NA polyclonal Ab labeled with ruthenium (MSD-Sulfo-TAG™—NHS ester). After an overnight incubation at room temperature with shaking, the reaction was read on the Sector Imager™ 6000. […] The amount of secreted TNF-α in the presence of test compounds compared with that in the presence of DMSO vehicle alone (HI control) was calculated using the formula: % control (POC)=(cpd−average LO)/(average HI−averageLO)*100. […]

Test [2] relates to IL-1β, IL-6 and TNF-α production by LPS-activated PBMC. The test is described as follows: Lipopolysaccharide-activated PBMC cytokine production assay. It counts as cell-based. The settings on record: Homo sapiens, read-out: IC50 in the whole blood PMBC assay. How it is done:
Lipopolysaccharide-Activated PBMC Cytokine Production Assay
Test compounds were evaluated in vitro for the ability to inhibit the production of IL-1β, IL-6, and TNF-α by PBMC activated with bacterial lipopolysaccharide (LPS). Fresh leukocytes were obtained from a local blood bank, and peripheral blood mononuclear cells (PBMCs) were isolated by density gradient centrifugation on Ficol-Paque Plus (Pharmacia).
Preparation of Test Compound Stock Solutions
All reagents were prepared in RPMI 1640+10% v/v human AB serum+1× Pens/Strep/Glu (assay medium). Test compounds were dissolved in 100% DMSO and serially diluted in 96-well polypropylene round bottom micro titer plates (drug plate). Serial dilutions were then diluted 1:250 into assay medium to a 4× working concentration. Compound serial dilutions were half-log, 10 point titrations with a final starting concentration of 1 μM.
Treatment of Cells with Test Compounds and Activation with Lipopolysaccharide
LPS was prepared to a 4× concentration in assay medium. 100 μl of PBMC (1×10^6 cells/ml) were plated in a 96-well polystyrene flat bottom micro titer tissue culture plate and incubated with 50 μl of 4× compound serial dilution for 1 hour at 37° C., 5% CO2 in a tissue culture incubator. 50 μl 4×LPS or control was added and the plates were incubated at 37° C., 5% CO2 in a tissue culture incubator for 18 hours. The final DMSO concentration was 0.1%. The total volume was 200 μL. The final LPS concentration was 100 ng/mL. After 18 hours culture supernatants were removed and IL-1β, IL-6, and TNF-α presence in the supernatants was quantified using MSD ECL based technology.
20 μL of culture supernatant were added to MSD plates, and incubated for one hour at room temperature. 20 μL of detection antibody diluted in antibody diluent (1 μg/mL), and 110 μL of 2× Read Buffer P was added, and incubated for one hour at RT. Electrochemiluminescence was measured using the SECTOR HTS Imager (MSD, Gaithersburg, Md.).
Compound IC50 values were calculated as follows: The proportion of cytokine production in the presence of compound compared to the cytokine production in the presence of the DMSO vehicle alone (Hi control) was calculated using the formula: Percent Control (POC)=(compound−average Lo)/(average Hi−average Lo)*100.

The target in another test is human p38α (Homo sapiens, UniProt Q16539). As to the kind of experiment: Purified and activated recombinant human p38α HTRF kinase assay. The settings on record: recombinant human p38α 1 nM, 50 μM ATP, read-out: p38a IC50. It counts as biochemical. How it is done: Purified and Activated Recombinant Human p38α Assay Kinase Reaction Buffer: Kinase reaction buffer for p38α HTRF assays consists of 50 mM Tris-pH 7.5, 5 mM MgCl2, 0.1 mg/mL BSA, 100 μM Na3VO4 and 0.5 mM DTT. HTRF Detection Buffer: HTRF detection buffer contains 100 mM HEPES-pH 7.5, 100 mM NaCl, 0.1% BSA, 0.05% Tween-20, and 10 mM EDTA. Serial Dilution of Compounds: Compounds were dissolved in 100% DMSO and serially diluted (3 fold, 10 point) in a polypropylene 96-well microtiter plate (drug plate). The final starting concentration of compounds in the p38α enzymatic assays was 1 μM. […] Kinase Reaction: […] See table below for actual concentrations. In the absence of substrate, the background was measured as LO control. The reaction was allowed to incubate for 1 hour at RT. Assay Reagent Concentrations: […] HTRF Detection: […] After 60 minutes incubation at room temperature, the assay plate was read in a Discovery Plate Reader. The wells were excited with coherent 320 nm light and the ratio of delayed ([…] post excitation) emissions at […] (native europium fluorescence) and 665 nm (europium fluorescence transferred to allophycocyanin-an index of substrate phosphorylation) was determined (Park et al, 1999). Data Analysis: The proportion of substrate phosphorylated in the kinase reaction in the presence of compound compared with that phosphorylated in the presence of DMSO vehicle alone (HI control) was calculated using the formula: % control (POC)=(compound-average LO)/(average HI-average LO)*100. […] The inhibition constant (Ki) of the inhibitor was estimated from the IC50 (compound concentration at the point of inflection C) using the Cheng-Prussof equation: […] All results were expressed as the mean±the standard error of the mean.
Chain of human p38α (Q16539 whole entry): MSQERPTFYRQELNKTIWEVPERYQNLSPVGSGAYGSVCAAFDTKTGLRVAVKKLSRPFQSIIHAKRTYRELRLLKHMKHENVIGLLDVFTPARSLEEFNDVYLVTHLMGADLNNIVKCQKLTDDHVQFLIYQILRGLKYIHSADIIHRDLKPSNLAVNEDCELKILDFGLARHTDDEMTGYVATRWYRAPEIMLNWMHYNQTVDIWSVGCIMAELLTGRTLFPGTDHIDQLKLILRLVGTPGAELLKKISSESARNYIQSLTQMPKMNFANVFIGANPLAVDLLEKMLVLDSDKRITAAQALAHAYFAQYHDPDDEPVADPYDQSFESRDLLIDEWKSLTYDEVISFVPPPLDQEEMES
Background: Time-resolved FRET reads energy transfer from a long-lived donor to a nearby acceptor.

Test [3] has as its system TNF-α induced IL-8 production in human whole blood. The test is described as follows: Inhibition of TNF-α induced IL-8 in 50% human whole blood. It counts as cell-based. The method, then: Inhibition of TNF-α Induced IL-8 in 50% Human Whole Blood Test compounds were evaluated in vitro for the ability to inhibit the production of secreted IL-8 by whole blood activated with TNF-α. Fresh human whole blood was obtained from healthy, non-medicated volunteers in sodium heparin tubes. Compound Dilution—Assay Procedure […] Cytokine Measurement Cytokines are measured on antibody (Ab) sandwich ECL based 96-well detection plates. 20 ul of supernatant are added to plate and plate is sealed and shaken at RT for 1 hour. 130 ul of detection Ab cocktail is added and plates are sealed and shaken for 1 hour in the dark at RT. Plates are read on MSD Sector HTS instrument.

The mark [4] stands for this setting: Homo sapiens, read-out: WB TNF/IL8 IC50, TNF-α (1 nM) induced IL-8, 50% human whole blood, 16-18 hours.

Where “and” joins values, the source holds several entries; their conditions need not be identical. Identical values can stand only once. Like-named read-outs stand apart in the source and are kept apart here. Some results are limits rather than exact numbers.

For the compound `Cn1c(=O)c(Nc2ccc(F)cc2F)cc2cnnc(-c3ccc(F)cc3F)c21` [Example 1, 8-(2,4-difluorophenyl)-3-(2,4-difluorophenylamino)-1-methylpyrido[3,2-d]pyridazin-2(1H)-one], the IC50 in test [1] is at most 1000 nM; in test [2] (18 h), at most 1000 nM; on human p38α, 0.8 nM.
Regarding `Cn1c(=O)c(Oc2ccc(F)cc2)cc2cnnc(-c3ccc(F)cc3F)c21` [Example 2, 8-(2,4-difluorophenyl)-3-(4-fluorophenoxy)-1-methylpyrido[3,2-d]pyridazin-2(1H)-one], the IC50 in test [1] was at most 1000 nM; in test [2] (18 h), at most 1000 nM; in test [3] (setting [4]) it was at most 300 nM; in test [3] (read-out: WB TNF/IL8 IC50, TNF-α (1 nM) induced IL-8, 50% human whole blood, 16-18 hours) it was 273 nM; at human p38α, ≤ 125 nM and 102 nM.
Take `Cn1c(=O)c(Nc2ccc(F)cc2F)cc2cnnc(-c3ccc(C(F)(F)F)cc3F)c21` [Example 3, 3-(2,4-difluorophenylamino)-8-(2-fluoro-4-(trifluoromethyl)phenyl)-1-methylpyrido[3,2-d]pyridazin-2(1H)-one]: the values for the IC50 (in test [2] (18 h); at human p38α) were at most 1000 nM and 2.3 nM, respectively.
For `Cn1c(=O)c(Nc2ccc(F)cn2)cc2cnnc(-c3ccc(F)cc3F)c21` [Example 4, 8-(2,4-difluorophenyl)-3-((5-fluoro-2-pyridinyl)amino)-1-methylpyrido[2,3-d]pyridazin-2(1H)-one], the IC50 in test [3] (setting [4]) was over 2500 nM; on human p38α, 327 nM.
In the case of `CCn1c(=O)c(Nc2ccc(F)cc2F)cc2cnnc(-c3ccc(F)cc3F)c21` [Example 5, 8-(2,4-difluorophenyl)-3-((2,4-difluorophenyl)amino)-1-ethylpyrido[2,3-d]pyridazin-2(1H)-one], the IC50 in test [2] (18 h) was at most 1000 nM; at human p38α, 0.2 nM.
On the same counts, the results for `Cn1c(=O)c(Oc2ccc(F)cc2F)cc2cnnc(-c3ccccc3Cl)c21` [Example 6, 8-(2-chlorophenyl)-3-(2,4-difluorophenoxy)-1-methylpyrido[2,3-d]pyridazin-2(1H)-one] are at most 1000 nM and 0.6 nM.
As to `Cn1c(=O)c(Nc2ncc(F)cc2F)cc2cnnc(-c3ccc(F)cc3F)c21` [Example 7, 8-(2,4-difluorophenyl)-3-((3,5-difluoro-2-pyridinyl)amino)-1-methylpyrido[2,3-d]pyridazin-2(1H)-one], the IC50 in test [3] (setting [4]) was over 2500 nM; at human p38α it was 111 nM.
Turning to `Cc1cc(S(C)(=O)=O)ccc1-c1nncc2cc(Nc3ccc(F)cc3F)c(=O)n(C)c12` [Example 8, 3-((2,4-difluorophenyl)amino)-1-methyl-8-(2-methyl-4-(methylsulfonyl)phenyl)pyrido[2,3-d]pyridazin-2(1H)-one], the IC50 in test [2] (18 h) was at most 1000 nM; on human p38α, 1.7 nM.
Regarding `Cc1cc(S(C)(=O)=O)ccc1-c1nncc2cc(Oc3ccc(F)cc3F)c(=O)n(C)c12` [Example 9, 3-(2,4-difluorophenoxy)-1-methyl-8-(2-methyl-4-(methylsulfonyl)phenyl)pyrido[2,3-d]pyridazin-2(1H)-one], the IC50 in test [2] (LPS 100 ng/mL, 18 hours) is at most 1000 nM; at human p38α it was 11 nM.
On the same counts, the results for `Cn1c(=O)c(Nc2ccc(F)cc2F)cc2cnnc(-c3ccc(S(C)(=O)=O)cc3Cl)c21` [Example 10, 8-(2-chloro-4-(methylsulfonyl)phenyl)-3-((2,4-difluorophenyl)amino)-1-methylpyrido[2,3-d]pyridazin-2(1 H)-one] are at most 1000 nM and 0.8 nM.
On the same counts, the results for `Cn1c(=O)c(Nc2ccc(F)cc2)cc2cnnc(-c3ccc(F)cc3F)c21` [Example 11, 8-(2,4-difluorophenyl)-3-((4-fluorophenyl)amino)-1-methylpyrido[2,3-d]pyridazin-2(1H)-one] are at most 1000 nM and 2.2 nM.
On the same counts, the results for `Cn1c(=O)c(Oc2ccc(F)cc2F)cc2cnnc(-c3ccc(F)cc3F)c21` [Example 12, 3-(2,4-difluorophenoxy)-8-(2,4-difluorophenyl)-1-methylpyrido[2,3-d]pyridazin-2(1H)-one] are at most 1000 nM and 8.4 nM.

The values are drawn from US8420649B2, “Pyrido[3,2-d]pyridazine-2(1H)-one compounds as p38 modulators and methods of use thereof” (Amgen Inc., priority 2008, dated 2013).
